In brackets after ≈: the same amount, converted by molar mass.
Test: Test on the solubility in a simulated body fluid
Format: physicochemical
Details: for Compound concentration: Bupivacaine / Compound concentration: Pamoic acid / solubility: 0.01 M PBS pH 7.4, 37° C.
Protocol: Test on the Solubility in a Simulated Body Fluid
The concentration of the drug dissolved in the PBS buffered solution was determined with an HPLC-a method.

| SMILES | Compound concentration: Bupivacaine (5 min) [µM] | Compound concentration: Pamoic acid (5 min) [µM] | Compound concentration: Bupivacaine (15 min) [µM] | Compound concentration: Pamoic acid (15 min) [µM] | Compound concentration: Bupivacaine (30 min) [µM] | Compound concentration: Pamoic acid (30 min) [µM] | Compound concentration: Bupivacaine (1 h) [µM] | Compound concentration: Pamoic acid (1 h) [µM] | Compound concentration: Bupivacaine (2 h) [µM] | Compound concentration: Pamoic acid (2 h) [µM] | Compound concentration: Bupivacaine (6 h) [µM] | Compound concentration: Pamoic acid (6 h) [µM] | Compound concentration: Bupivacaine (24 h) [µM] | Compound concentration: Pamoic acid (24 h) [µM] | stability of the suspension (ratio between acid radical and basic group) (simulated body fluid) | solubility (simulated body fluid) | solubility at 24 h (phosphate buffered saline (simulated body fluid), 37 °C, aqueous buffer, thermodynamic from solid, simulated body fluid, 0.01 M PBS at pH 7.4, read-out: Saturated solubility) [µM] | Saturated solubility (simulated body fluid, 0.01 M PBS at pH 7.4) [µM] |
| --- | --- | --- | --- | --- | --- | --- | --- | --- | --- | --- | --- | --- | --- | --- | --- | --- | --- | --- |
| CCCCN1CCCCC1C(=O)Nc1c(C)cccc1C.CCCCN1CCCCC1C(=O)Nc1c(C)cccc1C.O=C(O)c1cc2ccccc2c(Cc2c(O)c(C(=O)O)cc3ccccc23)c1O [Preparation Example 12, bis(bupivacaine) pamoate] | 147.5 | 73.6 | 210.1 | 107 | 247.4 | 127.4 | 267.2 | 137.5 | 280.2 | 140 | 290.8 | 149.7 | 284.8 | 142.9 | stable | about 0.3 mM | – | – |
| CCCCN1CCCCC1C(=O)Nc1c(C)cccc1C.CCCCN1CCCCC1C(=O)Nc1c(C)cccc1C.O=C(O)c1cc2ccccc2c(Cc2c(O)c(C(=O)O)cc3ccccc23)c1O [Preparation Example 29, bis(bupivacaine) pamoate] | 159.8 | 78.2 | 196.9 | 97.3 | 241.5 | 122.1 | 269.9 | 119.5 | 271.3 | 140 | 275.1 | 145 | 305 | 151.6 | stable | about 0.3 mM | – | – |
| CCCCN1CCCCC1C(=O)Nc1c(C)cccc1C.CCCCN1CCCCC1C(=O)Nc1c(C)cccc1C.O=C(O)c1cc2ccccc2c(Cc2c(O)c(C(=O)O)cc3ccccc23)c1O [Preparation Example 30, bis(bupivacaine) pamoate] | 142.3 | 75.7 | 218.8 | 111.6 | 233.7 | 128.5 | 280.5 | 135.6 | 277.3 | 130.8 | 287.2 | 137.9 | 286.9 | 140.2 | stable | about 0.3 mM | – | – |
| CCCN1CCCC[C@H]1C(=O)Nc1c(C)cccc1C [Ropivacaine free base, reference compound] | – | – | – | – | – | – | – | – | – | – | – | – | – | – | – | – | 1360 (≈ 373 µg/mL) | – |
| CCCCN1CCCCC1C(=O)Nc1c(C)cccc1C.CCCCN1CCCCC1C(=O)Nc1c(C)cccc1C.O=C(O)c1cc2ccccc2c(Cc2c(O)c(C(=O)O)cc3ccccc23)c1O [bis(bupivacaine) pamoate] | – | – | – | – | – | – | – | – | – | – | – | – | – | – | – | – | – | 300 |
